Columns and labels:
[1] = test system: rpL34 promoter; assay: Response of rpL34 promoter constructs to wounding and plant hormones in leaf discs of transgenic tobacco; type: in vivo, Nicotiana tabacum; settings: leaf discs of plants with −1500, m178 or Δ147; 1 μM 2,4-D or 5 μM BA in MS medium, 24 hr; versus wounding alone
Description: Fresh young leaves of independent transgenic tobacco were ground in lysis buffer (50 mM sodium phosphate, pH 7.0. 10 mM EDTA, 0.1% TritonX-100, 0.1% sarkosyl and 10 mM DTT). Tobacco protoplast protein was extracted in the same buffer by sonication on ice twice, 5 seconds each time. […] Approximately 5-10 μg of protein was incubated in the presence of 1 mM 4-methylumbelliferyl β-D-glucuronide in 100 μl of lysis buffer at 37 C. Samples from each reaction were taken at 0, 15, and 30 min intervals and the enzyme reaction was quenched in 0.2 M sodium carbonate (Na2CO3). The flurometer was calibrated with 100, 200, 300, and 400 nM 4-methylumbelliferon in 0.2M sodium carbonate.
Kanamycin resistant T1 seedlings, each containing a unique internally deleted rpL34 promoter, were selected and grown to maturity. Six leaf discs excised from the fourth leaf of each plant by paper punch were randomly pooled and incubated in MS medium with 5 μM BA, 1 μM 2,4-D or no plant hormone (wounding treatment) for 24 hr at room temperature. […] The leaf discs ground immediately after excision in protein extraction buffer served as non-wounded tobacco controls.

[2] = test system: rpL34 promoter; settings: previous promoter analyses (Dai et al. 1996); on top of mechanical wounding; cited from earlier work

SMILES	induced GUS activity [1]	rpL34 promoter activity [2]
O=C(O)COc1ccc(Cl)cc1Cl [2,4-D, 2,4-dichlorophenoxyacetic acid]	induced higher GUS activity than wounding alone	further enhanced
c1ccc(CNc2ncnc3nc[nH]c23)cc1 [BA, benzyladenine]	induced higher GUS activity than wounding alone	further enhanced
